Source: patent US20210138025A1, “CATIONIC PEPTIDES WITH IMMUNOMODULATORY AND/OR ANTI-BIOFILM ACTIVITIES” (priority 2018, published 2021)
≈ marks a conversion by molar mass, not a printed value. Read-outs that look alike come from different tables or passages of the source. Non-standard residues stand in square brackets, D forms with d. No end group written: not given here. hArg = N=C(N)NCCCC[C@H](N)C(=O)O; Agb = N=C(N)NCC[C@H](N)C(=O)O; Agp = N=C(N)NC[C@H](N)C(=O)O; Orn = NCCC[C@H](N)C(=O)O; Dab = NCC[C@H](N)C(=O)O

Tests used:
[1] = test system: S. aureus (MRSA SAP0017); assay type: cell-based, Staphylococcus aureus; conditions: for % Biofilm Inhibition: SPOT synthesized control peptides, determined as in Table 5, Table 7; for % Residual MRSA biofilm growth compared to untreated control: SPOT synthesized peptide, ~12.5 μM, clinical MRSA strain, crystal violet assay
Experimental: Methods of assessment of anti-biofilm activity: MRSA S. aureus strain SAP0017 biofilm formation was initially analyzed using a static abiotic solid surface assay as described elsewhere (de la Fuente-Nunez et al., 2012) and shown graphically in FIG. 2. Dilutions (1/100) of overnight cultures were incubated in BM2 biofilm-adjusted medium [62 mM potassium phosphate buffer (pH 7), 7 mM (NH4)2SO4, 2 mM MgSO4, 10 μM FeSO4, 0.4% (wt/vol) glucose, 0.5% (wt/vol) Casamino Acids], or a nutrient rich medium such as Tryptic soy broth supplemented with 1% glucose, in polypropylene microtiter plates (Falcon, United States) in the absence (control) or presence of peptide. Peptide was added at time zero (prior to adding the diluted, overnight cultures) in varying concentrations, and the amount biofilm formation was recorded after 22-46 h incubation for most bacteria. To quantify biofilm growth, planktonic cells were removed and biofilm cells adhering to the side of the wells were stained with crystal violet, and absorbance at 595 nm was measured using a microtiter plate reader (Bio-Tek Instruments Inc., United States).

[2] = test system: MCP-1; assay: MCP-1 chemokine induction in human PBMCs, ELISA (Tables 6, 7; FIGS. 6-9, 13); assay type: cell-based; conditions: SPOT synthesized control peptides, determined as in Table 6; Table 7
Experimental: Venous blood (20 ml) from healthy volunteers was collected in Vacutainer® collection tubes containing sodium heparin as an anticoagulant (Becton Dickinson, Mississauga, ON) in accordance with UBC ethical approval and guidelines. Blood was diluted 1:1 with complete RPMI 1640 medium and separated by centrifugation over a Ficoll-Paque® Plus (Amersham Biosciences, Piscataway, N.J., USA) density gradient. White blood cells were isolated from the buffy coat, washed twice in PBS and then resuspended in RPMI 1640 complete medium (containing 10% fetal bovine serum), and the number of peripheral blood mononuclear cells (PBMC) was determined by Trypan blue exclusion. PBMCs (5×10^5) were seeded into 12-well tissue culture dishes (Falcon; Becton Dickinson) at 0.75-1×10^6 cells/ml at 37° C. in 5% CO2. The above conditions were chosen to mimic conditions for circulating blood monocytes entering tissues at the site of infection via extravasation.
Following incubation of the cells under various treatment regimens, the tissue culture supernatants were centrifuged at 1000×g for 5 min, then at 10,000×g for 2 min to obtain cell-free samples. Supernatants were aliquoted and then stored at −20° C. prior to assay for various chemokines by capture ELISA (eBioscience and BioSource International Inc., CA, USA respectively)

[3] = test system: IL-1β; assay: Suppression of LPS-induced IL-1β production in human PBMCs, ELISA (Tables 6, 7; FIGS. 6-9, 13); conditions: SPOT synthesized control peptides, determined as in Table 6; Table 7
[4] = test system: PBMCs; assay: Cytotoxicity towards PBMCs, lactate dehydrogenase (LDH) release assay (Tables 6, 7); conditions: SPOT synthesized peptide ~25 μM, PBMCs from 3 human donors; Table 6
[5] = test system: planktonic methicillin resistant S. aureus; assay: microbe, parasite or virus in culture; assay type: cell-based, Staphylococcus aureus; conditions: for MIC: Staphylococcus aureus

Molecule | % Biofilm Inhibition [1] [%] | % Toxicity (LDH Release) [4] [%] | other results
C34 (WRIKKQWIQIIV) [Peptide C34] | 99 | – | MCPI production in PBMC [2]: 217 pg/mL; Fold Change in IL1-β relative to untreated LPS-stimulated cells [3]: 1.13
C40 (ALLAGRKRAVAV) [Peptide C40] | 102 | – | MCPI production in PBMC [2]: 39 pg/mL; Fold Change in IL1-β relative to untreated LPS-stimulated cells [3]: 0.89
IKWVLRKIVQII-NH2 [IBFmax-17, IKWVLRKIVQII] | – | 3.6 | –
C44 (LLKLKQKGIVIA) [Peptide C44] | 102 | – | MCPI production in PBMC [2]: 365 pg/mL; Fold Change in IL1-β relative to untreated LPS-stimulated cells [3]: 0.94
QIIKVVWRAVII-NH2 [MILBFmax-8, QIIKVVWRAVII] | – | −2.3 | –
VIKVLIKRWLKL-NH2 [BFmax-9, VIKVLIKRWLKL] | – | 7.4 | –
KIWGLLKLGIAL-NH2 [Imax-6, KIWGLLKLGIAL] | – | 1.1 | –
CN[C@H](CC(C)C)C(=O)N[C@H]1C(=O)N[C@@H](CC(N)=O)C(=O)N[C@H]2C(=O)N[C@H]3C(=O)N[C@H](C(=O)N[C@H](C(=O)O)c4cc(O)cc(O)c4-c4cc3ccc4O)[C@H](O)c3ccc(c(Cl)c3)Oc3cc2cc(c3O[C@@H]2O[C@H](CO)[C@@H](O)[C@H](O)[C@H]2O[C@H]2C[C@](C)(N)[C@H](O)[C@H](C)O2)Oc2ccc(cc2Cl)[C@H]1O [Vancomycin] | – | – | MIC ([5]; read-out: MIC (μM) MHB): 0.34 µM (≈ 0.493 µg/mL); MIC ([5]; read-out: MIC (μM) TSB with 1% Glucose): 0.68 µM (≈ 0.986 µg/mL)
C45 (QWLVKWVIIKVV) [Peptide C45] | 102 | – | MCPI production in PBMC [2]: 499 pg/mL; Fold Change in IL1-β relative to untreated LPS-stimulated cells [3]: 1
C52 (KIVQKKLRLVVI) [Peptide C52] | 99 | – | MCPI production in PBMC [2]: 291 pg/mL; Fold Change in IL1-β relative to untreated LPS-stimulated cells [3]: 0.76
C31 (RAIIKQRWQRRW) [Peptide C31] | 103 | – | MCPI production in PBMC [2]: 1649 pg/mL; Fold Change in IL1-β relative to untreated LPS-stimulated cells [3]: 1.09
VRLIVAVRIWRR-NH2 [Peptide 1018, VRLIVAVRIWRR, reference compound] | – | 21.8 | percentage of biofilm inhibited ([1]; SPOT-synthesized peptide, ~2.5 μM, MRSA SAP0017): 31%; MIC (μM) MHB ([5]; planktonic methicillin resistant S. aureus, broth microdilution in Mueller Hinton Broth (MHB), mean of three biological replicates): 4 µM; MIC (μM) TSB with 1% Glucose ([5]; planktonic methicillin resistant S. aureus, broth microdilution in Tryptic Soy Broth (TSB) supplemented with 1% glucose, mean of three biological replicates): >64 µM
LKLKAILKIIRV-NH2 [MILBFmax-1, LKLKAILKIIRV] | – | 1.5 | –
C19 (RLIQWGWKIWAV) [Peptide C19] | 99 | – | MCPI production in PBMC [2]: 738 pg/mL; Fold Change in IL1-β relative to untreated LPS-stimulated cells [3]: 0.94
C47 (KVIQWIIVRRVL) [Peptide C47] | 102 | – | MCPI production in PBMC [2]: 1193 pg/mL; Fold Change in IL1-β relative to untreated LPS-stimulated cells [3]: 0.76
VKGAIKRGIWVK-NH2 [Imax- 5] | – | 3 | –
RQVRVKRWRARW-NH2 [Mmax- 18] | – | −4.9 | –
VQWIQIVVWRKR-NH2 [BFmax-6, VQWIQIVVWRKR] | – | −4.4 | –
KVVWWKVIIKVL-NH2 [BFmax-2, KVVWWKVIIKVL] | – | −3.5 | –
RARQIRWLRKRV-NH2 [Imin-4, RARQIRWLRKRV] | – | −4.9 | –
VARWKIIIAKLW-NH2 [BFmax-5, VARWKIIIAKLW] | – | 2 | –
KRLQWVKVKKIR-NH2 [BFmax-16, KRLQWVKVKKIR] | – | 0.6 | –
WWIKIVVIRVRR-NH2 [IBFmax-13, WWIKIVVIRVRR] | – | −2 | –

Molecule | % Biofilm Inhibition [1] [%] | % Toxicity (LDH Release) [4] [%] | other results
RVLIKWKKVIVV-NH2 [IBFmax-8, RVLIKWKKVIVV] | – | −1.8 | –
KKQKKIWRRILV-NH2 [Mmax- 16] | – | 1.8 | –
ALAIKVWIKILQ-NH2 [Imax-7, ALAIKVWIKILQ] | – | −1.1 | –
GLIIKIIKKRLW-NH2 [IBFmax-15, GLIIKIIKKRLW] | – | 25.1 | –
IVKKVKLIWGVK-NH2 [MILBFmax-13, IVKKVKLIWGVK] | – | −3.2 | –
VVGLRVRWVRLW-NH2 [Imin-3, VVGLRVRWVRLW] | – | −4.3 | –
WAVRALKVKWAL-NH2 [Imax-20, WAVRALKVKWAL] | – | −2.7 | –
HarRLIVAVRIWRR ([hArg]RLIVAVRIWRR-NH2; N-terminus assumed; SMILES CC[C@H](C)[C@H](NC(=O)[C@H](CCCNC(=N)N)NC(=O)[C@@H](NC(=O)[C@H](C)NC(=O)[C@@H](NC(=O)[C@@H](NC(=O)[C@H](CC(C)C)NC(=O)[C@H](CCCNC(=N)N)NC(=O)[C@@H](N)CCCCNC(=N)N)[C@@H](C)CC)C(C)C)C(C)C)C(=O)N[C@@H](Cc1c[nH]c2ccccc12)C(=O)N[C@@H](CCCNC(=N)N)C(=O)N[C@@H](CCCNC(=N)N)C(N)=O) [Peptide 1018-r25] | – | – | % Residual MRSA biofilm growth compared to untreated control [1]: 64%
KVQIIKQLIAKK-NH2 [BFmax-7, KVQIIKQLIAKK] | – | −3.9 | –
VRLIVAVRIWOrnR (VRLIVAVRIW[Orn]R-NH2; N-terminus assumed; SMILES CC[C@H](C)[C@H](NC(=O)[C@H](CCCNC(=N)N)NC(=O)[C@@H](NC(=O)[C@H](C)NC(=O)[C@@H](NC(=O)[C@@H](NC(=O)[C@H](CC(C)C)NC(=O)[C@H](CCCNC(=N)N)NC(=O)[C@@H](N)C(C)C)[C@@H](C)CC)C(C)C)C(C)C)C(=O)N[C@@H](Cc1c[nH]c2ccccc12)C(=O)N[C@@H](CCCN)C(=O)N[C@@H](CCCNC(=N)N)C(N)=O) [Peptide 1018-k35] | – | – | % Residual MRSA biofilm growth compared to untreated control [1]: 34%
IRILVLRKAIIV-NH2 [MILBFmax-9, IRILVLRKAIIV] | – | 23.9 | –
IVKWIAQWKLVG-NH2 [Imax- 10] | – | −1 | –
C70 (VR[Agb]IVAVRIWRR) [Peptide C70] | 98 | – | –
IQLKLIWVKRKW-NH2 [MILBFmax5, IQLKLIWVKRKW] | – | −1.3 | –
GRVLKIVWRKGR-NH2 [Mmax-3, GRVLKIVWRKGR] | – | 4.2 | –
C96 (VR[Dab]IVAVRIWRR) [Peptide C96] | 89 | – | –
VRLIVAVRIWROrn (VRLIVAVRIWR[Orn]-NH2; N-terminus assumed; SMILES CC[C@H](C)[C@H](NC(=O)[C@H](CCCNC(=N)N)NC(=O)[C@@H](NC(=O)[C@H](C)NC(=O)[C@@H](NC(=O)[C@@H](NC(=O)[C@H](CC(C)C)NC(=O)[C@H](CCCNC(=N)N)NC(=O)[C@@H](N)C(C)C)[C@@H](C)CC)C(C)C)C(C)C)C(=O)N[C@@H](Cc1c[nH]c2ccccc12)C(=O)N[C@@H](CCCNC(=N)N)C(=O)N[C@@H](CCCN)C(N)=O) [Peptide 1018-k36] | – | – | % Residual MRSA biofilm growth compared to untreated control [1]: 20%
C108 (VRLI[Orn]AVRIWRR-NH2; N-terminus assumed; SMILES CC[C@H](C)[C@H](NC(=O)[C@H](CC(C)C)NC(=O)[C@H](CCCNC(=N)N)NC(=O)[C@@H](N)C(C)C)C(=O)N[C@@H](CCCN)C(=O)N[C@@H](C)C(=O)N[C@H](C(=O)N[C@@H](CCCNC(=N)N)C(=O)N[C@H](C(=O)N[C@@H](Cc1c[nH]c2ccccc12)C(=O)N[C@@H](CCCNC(=N)N)C(=O)N[C@@H](CCCNC(=N)N)C(N)=O)[C@@H](C)CC)C(C)C) [Peptide C108] | 104 | – | –
C62 (VRLIV[Agp]VRIWRR) [Peptide C62] | 106 | – | –
QQVKWWLIRWLA-NH2 [IBFmax-11, QQVKWWLIRWLA] | – | −0.1 | –
C81 (VR[hArg]IVAVRIWRR) [Peptide C81] | 107 | – | –
C64 (VRLIVAV[Agp]IWRR) [Peptide C64] | 107 | – | –
